Data set [1] deals with phosphodiesterase (PDE) from human blood platelets. The data set can be described thus: PDE inhibition (phosphodiesterase from human blood platelets, 3H-cAMP hydrolysis). The format is biochemical. Particulars: human platelet PDE, 1 μmol/liter 3H-cAMP, pH 7.4, 15 minutes at 37° C. On the procedure:
cAMP is hydrolyzed to AMP by phosphodiesterase (PDE) from various sources, including blood platelets.
The phosphodiesterase used was prepared by centrifugal extraction at 10,000 g from human blood platelets which were frozen in water and then thawed.
A quantity of 0.3 ml of a mixture containing 0.1 mol/liter of […] (pH 7.4), 3 mmols/liter of magnesium chloride, 1 mmol/liter of AMP, 1 μmol/liter of ^3 H-cAMP (specific activity about 10 MBq/μmol), PDE, and the inhibitor under investigation (water in the case of the control) was incubated for 15 minutes at 37° C. […] From a comparison of the results for inhibitor and control cases, the concentration of the respective inhibitor necessary for a 50% inhibiting effect (IC50) was calculated.

The next data set deals with thrombocyte aggregation. The experiment in a line: Antithrombotic activity: collagen-induced thrombocyte aggregation in platelet-rich plasma (Born and Cross). It counts as cell-based. The note with it: Homo sapiens, 50% change in optical density, ten minutes at 37° C. On the procedure: The thrombocyte aggregation is determined in platelet-rich plasma from healthy test subjects using the method of Born and Cross [J. Physiol. 170, 397 (1964)]. To inhibit coagulation, the blood is mixed with 3.14 percent of sodium citrate in a volume ratio of 1:10.
The pattern of the decrease in optical density of the platelet suspension after administration of the aggregation-initiating substance is measured photometrically and recorded. The speed of aggregation is deduced from the angle of inclination of the density curve. The point of the curve where there is the most light transmittance is used to calculate the optical density.
The quantity of collagen used is as small as possible, but sufficient to produce an irreversible reaction curve. The standard commercial collagen made by Hormonchemie of Munich is used. Before the collagen is administered, the plasma is incubated with the substance for ten minutes at 37° C.
From the measurements obtained, and EC50 is obtained graphically, relating to a 50% change in optical density by way of an inhibition of aggregation.

For a further data set, the system named is primary hemostasis. The data set can be described thus: Determination of the prolongation of bleeding time in conscious mice. It counts as in vivo. Particulars: Mus musculus, 1 h, 10 mg/kg oral, one hour, as compared to a control group, read-out: Prolongation of Bleeding Time after One Hour (%). The protocol:
Since, in the event of injury, the first rapid cessation of bleeding is effected by the adhesion and aggregation of the thrombocytes at the vessel wall, the functioning of the thrombocytes can easily be determined by measuring the bleeding time with a standardized injury. The normal bleeding time in humans is between 1 and 3 minutes, assuming that there are sufficient intact, effective thrombocytes. If the number of thrombocytes is normal and the bleeding time is prolonged, this signifies an abnormality in the thrombocytes. This is found in some inborn errors of thrombocyte function. If, on the other hand, it is desired to prevent spontaneous aggregation of the thrombocytes and occlusion in the arterial system by drugs, successful therapy affecting the thrombocytes should prolong the bleeding time. Therefore, with use of an antithrombotic substance, a prolongation of the bleeding time is expected. Also, there should be a normal coagulation time since the plasma coagulation system is not affected.
To measure the bleeding time, 10 mg/kg of the test compounds were administered orally to conscious mice. After one hour, 0.5 mm of the tip of the tail of each mouse was cut off, and droplets of blood were gently removed with filter paper every 30 seconds. The number of drops of blood thus obtained gives a bleeding time (5 animals per experiment).
The results in the following table represent the prolongation of the bleeding time in percent as compared to a control group.

For the next data set, the system named is mice. The data set can be described thus: Acute toxicity after oral administration of a single dose. It counts as in vivo. The note with it: observation period 14 days; for Approximate Acute Toxicity: groups of ten, single oral dose; for animals died: single oral dose 1000 mg. On the procedure:
The acute toxicity of the test compounds was determined, as a guide, in groups of ten mice, after oral administration of a single dose (observation period: 14 days): […]

The term IC50 denotes the point on the concentration scale where inhibition reaches its midpoint. A higher IC50 goes with a need for much substance. By EC50 is commonly meant the concentration that produces a half-maximal response. The low end stands for an effect from little substance, the high end for a need for much substance. Turning to `Cc1ccc([S+]([O-])CCCCOc2cc3c(cc2Cl)NC(=O)OC3(C)C)cc1` (stereo not shown) [U, 7-chloro-4,4-dimethyl-6-[4-(4-methyl-phenylsulfinyl)-butoxy]-4H-3,1-benzoxazin-2-one], half-maximal inhibition in data set [1] (IC50) required 0.0034 µM. Also, in the data set with thrombocyte aggregation, the EC50 is 0.028 µM. Besides, the change in vivo at 10 mg/kg in the data set on primary hemostasis is above 230%. Also, in the data set on mice, the “Approximate Acute Toxicity” value is 1000 mg and the animals died is on record as 0 out of 10 animals died.
The like results for `CC1(C)OC(=O)Nc2cc(Br)c(OCCCC[S+]([O-])c3ccc(Cl)c(Cl)c3)cc21` (stereo not shown) [V, 7-bromo-6-[4-(3,4-dichloro-phenylsulfinyl)-butoxy]-4,4-dimethyl-4H-3,1-benzoxazin-2-one] were, in that order, 0.0038 µM, 0.044 µM, 100%, 1000 mg and 0 out of 10 animals died.

For the origin of these results see US4518597A, “Substituted benzoxazin-2-ones and pharmaceutical compositions containing them” (Dr. Karl Thomae GmbH, priority 1982, dated 1985).
